{"source": "paper PMC10451668", "about": "“Natural Acetogenins, Chatenaytrienins-1, -2, -3 and -4, Mitochondrial Potential Uncouplers and Autophagy Inducers—Promising Anticancer Agents” (Antioxidants, 2023)", "format_in_all_cases": "cell-based, human", "key": {"Jurkat": {"test_system": "Jurkat", "assay": "Cytotoxicity assay (7-AAD viability, flow cytometry)", "settings": "Homo sapiens, ± standard error of the mean, 95% CI in parenthesis", "description": "(§1) Cells, including Jurkat E6.1 (human leukemic T cell lymphoblasts, catalogue no. 88042803), K562 (human chronic myelogenous leukemia cells, catalogue no. 89121407), U937 (human histiocytic lymphoma cells, catalogue no. 85011440), HL60 (human promyelocytic leukemia cells, catalog no. 98070106), HEK293 (human embryonic kidney cells with adenovirus, catalog no. 85120602), and human lung fibroblasts Ce (catalogue no. 90011883), were purchased from the European Collection of Authenticated Cell Cultures (UK Health Security Agency) and cultured according to standard protocols using sterile techniques. […] Cells were maintained in RPMI 1640 (Jurkat, K562, U937, and HL60) and DME M (fibroblast and HEK293) (Gibco) supplemented with […] glutamine, 10% FBS (Sigma), and 100 units/mL penicillin-streptomycin (Sigma). All types of cells were grown under an atmosphere of 5% CO2 at 37 °C. The cells were subcultured at 2–3-day intervals. Cells were then seeded in 24-well plates at 5 × 10^4 cells per well and incubated overnight. Jurkat, K562, U937, HL60, HEK293, and fibroblast cells were subcultured at 2-day intervals with a seeding density of 1 × 10^5 cells per well in 24-well plates in RPMI with 10% FBS.\n(§2) Viability (live/dead) assessment was performed by staining cells with 7-AAD (7-aminoactinomycin D; Biolegend). After treatment, cells were harvested, washed 1–2 times with phosphate-buffered saline (PBS), and centrifuged at 400× g for 5 min. Cell pellets were resuspended in 200 µL of flow cytometry staining buffer (PBS without Ca^2+ and Mg^2+, 2.5% FBS) and stained with […] of 7-AAD staining solution for 15 min at room temperature in the dark. Samples were assessed using the NovoCyte Penteon Flow Cytometer System (Agilent, 5301 Stevens Creek Blvd., Santa Clara, CA, USA). Detection of 7-AAD emission was collected through a 675/30 nm filter in the FL4 channel."}, "U937": {"test_system": "U937", "assay": "Cytotoxicity assay (7-AAD viability, flow cytometry)", "settings": "Homo sapiens, U-937, ± standard error of the mean, 95% CI in parenthesis", "description": "as §1, §2"}, "HL60": {"test_system": "HL60", "assay": "Cytotoxicity assay (7-AAD viability, flow cytometry)", "settings": "Homo sapiens, HL-60, ± standard error of the mean, 95% CI in parenthesis", "description": "as §1, §2"}, "[1]": {"assay": "Cytotoxicity assay (7-AAD viability, flow cytometry)", "settings": "human; Hek293, conditionally normal line; ± standard error of the mean, 95% CI in parenthesis", "description": "as §1, §2"}, "K562": {"test_system": "K562", "assay": "Cytotoxicity assay (7-AAD viability, flow cytometry)", "settings": "Homo sapiens, ± standard error of the mean, 95% CI in parenthesis", "description": "as §1, §2"}, "[2]": {"assay": "Cytotoxicity assay (7-AAD viability, flow cytometry)", "settings": "human; normal fibroblasts; ± standard error of the mean, 95% CI in parenthesis"}, "Jurkat cells": {"test_system": "Jurkat cells", "assay": "Assessment of autophagy (anti-LC3/FITC, flow cytometry)", "settings": "0.5 CC50, 48 h", "description": "Autophagy is involved in various physiological processes and its changes are associated with the pathogenesis of diseases such as neurodegenerative diseases, cardiovascular complications, cancer, and infectious diseases, as well as with physiological processes such as innate and specific immunity, pathogen clearance, lymphocyte selection, antigen presentation, and production of immunoglobulins. Therefore, the determination of LC3 protein inside autophagosomes without the cytosolic form of LC3-I at the stage of selective cell permeability was measured using flow cytometry. Thus, using the FlowCellect™ LC3-GFP Reporter Autophagy Assay Kit (FCCH100170 and FCCH100181), flow cytometry allowed for a rapid assay that could be combined with other phenotypic and functional markers to characterize different cell populations.\nCanonical autophagy is associated with the conversion of LC3 protein (an autophagosome marker) from the cytoplasmic form of LC3I to the lipid-bound form of LC3II, which is associated with the membranes of maturing autophagosomes. The autophagy process can be conveniently classified into several stages. First, induction and translocation of the cytoplasmic LC3 protein occur due to the influence of external stimuli (adverse environmental influences)—the process is initiated by external/internal stimuli (for example, nutrient depletion or hypoxia). Then, the formation of autophagosomes begins, which are double-membrane vesicles that include the LC3 protein. This protein regulates the fusion of autophagosomes and lysosomes. It exists in two fractions—cytoplasmic LC3-I and LC3-II, isolated in the autophagosomal membrane. The LC3-II protein fraction was specified in our work, as its detection is a reliable indicator of the processes of autophagy in the cell."}}}
{"compound": "CCCCCCCCCC/C=C\\CC/C=C\\CC/C=C\\CCCCCCCCCCC1=C[C@H](C)OC1=O", "note": "[compound 1, chatenaytrienin-1]", "values": [{"measurement": "CC50", "setting": "Jurkat", "value": "90 ± 20", "unit": "nM"}, {"measurement": "CC50", "setting": "U937", "value": "90 ± 20", "unit": "nM"}, {"measurement": "CC50", "setting": "HL60", "value": "150 ± 10", "unit": "nM"}, {"measurement": "CC50", "setting": "[1]", "value": "530 ± 20", "unit": "nM"}, {"measurement": "CC50", "setting": "K562", "value": "100 ± 30", "unit": "nM"}, {"measurement": "CC50", "setting": "[2]", "value": "690 ± 40", "unit": "nM"}, {"measurement": "cells with autophagy (gate M3-2)", "setting": "Jurkat cells", "value": 96.26, "unit": "%"}]}
